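Five concentrations, 48 hours, 96-well plates. GI50: concentration for 50% inhibition of growth. TGI: concentration producing complete growth inhibition.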
Assays:
Test in all cases: NCI anticancer screen, dose series, 48 h
MDA-MB-468 breast = system: MDA-MB-468 breast
NCI-H23 lung = system: NCI-H23 lung
T-47D breast = system: T-47D breast
HCC-2998 colon = system: HCC-2998 colon
EKVX NSCLC = system: EKVX NSCLC
UACC-62 melanoma = system: UACC-62 melanoma
A498 renal = system: A498 renal
M14 melanoma = system: M14 melanoma
786-0 renal = system: 786-0 renal
SF-295 CNS = system: SF-295 CNS
SR leukemia = system: SR leukemia
A549 NSCLC = system: A549 NSCLC
SNB-19 CNS = system: SNB-19 CNS
HT29 colon = system: HT29 colon
COLO 205 colon = system: COLO 205 colon
NCI-H460 lung = system: NCI-H460 lung
UACC-257 melanoma = system: UACC-257 melanoma
HCT-15 colon = system: HCT-15 colon
RPMI-8226 leukemia = system: RPMI-8226 leukemia
CCRF-CEM leukemia = system: CCRF-CEM leukemia
U251 CNS = system: U251 CNS
HL-60(TB) leukemia = system: HL-60(TB) leukemia
OVCAR-3 ovarian = system: OVCAR-3 ovarian
HOP-92 NSCLC = system: HOP-92 NSCLC
TK-10 renal = system: TK-10 renal
DU-145 prostate = system: DU-145 prostate
NCI-H226 lung = system: NCI-H226 lung
OVCAR-5 ovarian = system: OVCAR-5 ovarian
SF-539 CNS = system: SF-539 CNS
MALME-3M melanoma = system: MALME-3M melanoma
OVCAR-4 ovarian = system: OVCAR-4 ovarian
SNB-75 CNS = system: SNB-75 CNS
MCF7 breast = system: MCF7 breast
SK-MEL-28 melanoma = system: SK-MEL-28 melanoma
HS 578T breast = system: HS 578T breast
OVCAR-8 ovarian = system: OVCAR-8 ovarian
NCI/ADR-RES ovarian = system: NCI/ADR-RES ovarian
MDA-MB-231 breast = system: MDA-MB-231 breast
SK-MEL-5 melanoma = system: SK-MEL-5 melanoma
PC-3 prostate = system: PC-3 prostate
BT-549 breast = system: BT-549 breast
RXF 393 renal = system: RXF 393 renal
HOP-62 NSCLC = system: HOP-62 NSCLC
LOX IMVI melanoma = system: LOX IMVI melanoma
UO-31 renal = system: UO-31 renal
ACHN renal = system: ACHN renal
SK-OV-3 ovarian = system: SK-OV-3 ovarian
IGROV1 ovarian = system: IGROV1 ovarian
SF-268 CNS = system: SF-268 CNS
CAKI-1 renal = system: CAKI-1 renal
SK-MEL-2 melanoma = system: SK-MEL-2 melanoma
HCT-116 colon = system: HCT-116 colon
SN12C renal = system: SN12C renal
KM12 colon = system: KM12 colon
MOLT-4 leukemia = system: MOLT-4 leukemia
SW-620 colon = system: SW-620 colon
K-562 leukemia = system: K-562 leukemia
MDA-MB-435 = system: MDA-MB-435
NCI-H522 lung = system: NCI-H522 lung

## O=C1NC(=NC23CC4CC(CC(C4)C2)C3)N/C1=C\c1ccc2ncccc2n1
MDA-MB-468 breast
  GI50: 201 nM
  TGI: 781 nM
NCI-H23 lung
  GI50: 283 nM
  TGI: 1080 nM
T-47D breast
  GI50: 238 nM
  TGI: 5380 nM
HCC-2998 colon
  GI50: 491 nM
  TGI: 4450 nM
EKVX NSCLC
  GI50: 321 nM
  TGI: 2810 nM
UACC-62 melanoma
  GI50: 226 nM
  TGI: 739 nM
A498 renal
  GI50: 175 nM
  TGI: 902 nM
M14 melanoma
  GI50: 352 nM
  TGI: 2930 nM
786-0 renal
  GI50: 371 nM
  TGI: 2350 nM
SF-295 CNS
  GI50: 251 nM
  TGI: 4590 nM
SR leukemia
  GI50: 224 nM
  TGI: 779 nM
A549 NSCLC
  GI50: 398 nM
  TGI: 5120 nM
SNB-19 CNS
  GI50: 261 nM
  TGI: 4210 nM
HT29 colon
  GI50: 833 nM
  TGI: 3680 nM
COLO 205 colon
  GI50: 319 nM
  TGI: 2940 nM
NCI-H460 lung
  GI50: 510 nM
  TGI: 5280 nM
UACC-257 melanoma
  GI50: 652 nM
  TGI: 5820 nM
HCT-15 colon
  GI50: 389 nM
  TGI: 6880 nM
RPMI-8226 leukemia
  GI50: 316 nM
  TGI: 1500 nM
CCRF-CEM leukemia
  GI50: 299 nM
  TGI: 3030 nM
U251 CNS
  GI50: 555 nM
  TGI: 11300 nM
HL-60(TB) leukemia
  GI50: 565 nM
  TGI: 3670 nM
OVCAR-3 ovarian
  GI50: 279 nM
  TGI: 1590 nM
HOP-92 NSCLC
  GI50: 222 nM
  TGI: 1760 nM
TK-10 renal
  GI50: 328 nM
  TGI: 6570 nM
DU-145 prostate
  GI50: 462 nM
  TGI: 7590 nM
NCI-H226 lung
  GI50: 597 nM
  TGI: 5970 nM
OVCAR-5 ovarian
  GI50: 743 nM
  TGI: 5430 nM
SF-539 CNS
  GI50: 128 nM
  TGI: 1110 nM
MALME-3M melanoma
  GI50: 147 nM
  TGI: 897 nM
OVCAR-4 ovarian
  GI50: 451 nM
  TGI: 3090 nM
SNB-75 CNS
  GI50: 91.3 nM
  TGI: 755 nM
MCF7 breast
  GI50: 367 nM
  TGI: 5840 nM
SK-MEL-28 melanoma
  GI50: 453 nM
  TGI: 2910 nM
HS 578T breast
  GI50: 222 nM
  TGI: 1230 nM
OVCAR-8 ovarian
  GI50: 632 nM
  TGI: 5730 nM
NCI/ADR-RES ovarian
  GI50: 1820 nM
  TGI: 7000 nM
MDA-MB-231 breast
  GI50: 557 nM
  TGI: 4820 nM
SK-MEL-5 melanoma
  GI50: 425 nM
  TGI: 1850 nM
PC-3 prostate
  GI50: 334 nM
  TGI: 6230 nM
BT-549 breast
  GI50: 163 nM
  TGI: 687 nM
RXF 393 renal
  GI50: 239 nM
  TGI: 995 nM
HOP-62 NSCLC
  GI50: 514 nM
  TGI: 4540 nM
LOX IMVI melanoma
  GI50: 416 nM
  TGI: 4780 nM
UO-31 renal
  GI50: 233 nM
  TGI: 1970 nM
ACHN renal
  GI50: 305 nM
  TGI: 1900 nM
SK-OV-3 ovarian
  GI50: 245 nM
  TGI: 1400 nM
IGROV1 ovarian
  GI50: 257 nM
  TGI: 1410 nM
SF-268 CNS
  GI50: 608 nM
  TGI: 5630 nM
CAKI-1 renal
  GI50: 234 nM
  TGI: 1200 nM
SK-MEL-2 melanoma
  GI50: 202 nM
  TGI: 545 nM
HCT-116 colon
  GI50: 250 nM
  TGI: 3720 nM
SN12C renal
  GI50: 350 nM
  TGI: 4570 nM
KM12 colon
  GI50: 683 nM
  TGI: 9840 nM
MOLT-4 leukemia
  GI50: 338 nM
  TGI: 2020 nM
SW-620 colon
  GI50: 425 nM
  TGI: 6420 nM
K-562 leukemia
  GI50: 546 nM
  TGI: > 33600 nM
MDA-MB-435
  GI50: 537 nM
  TGI: 5140 nM
NCI-H522 lung
  GI50: 194 nM
  TGI: 1130 nM

— PubChem BioAssay (NCI)
